# Assay results as given in patent US20230043678A1, “USE OF 5-METHYLTETRAHYDROFOLATE” (priority 2019, published 2023).
# Where two headings read alike, the source gives them in different places.
# What was measured:
# [1] = system: zebrafish embryos
# Method: Transgenic zebrafish (fli-1:EGFP) were from the Model Animal Research Center of Nanjing University. Adult zebrafish aged less than 1 year were used for experiment and fed at a water pH value of 7±0.2, a temperature around 28° C. and a ratio of illumination to darkness of 14 h:10 h, and with Artemia salina eggs twice a day. Three zebrafish, one female, two males, were placed in a spawning box the night before and eggs were collected the next morning. Fish eggs were placed in an embryo culture medium (prepared with 0.2 g/L of sea salt) and cultured at 28° C.
# Zebrafish embryos were cultured in 24-well plates with 10 embryos per well at 2 hpf in a dosing manner, drug solutions of the above concentrations in the table were separately added, termination was conducted at 8 hpf, and the embryos were washed and transferred to an egg solution for continuous culture to 72 hpf. Dead embryos were cleaned up in time. Each experiment was conducted in triplicate.
# A phenotype of malformation was observed, the number of all abnormal zebrafish where the malformation was present was recorded and a malformation rate and a rescue rate of each group were calculated. Morphological defects, a heart rate, cardiac morphology and other indicators were observed and evaluated by an SMZ745T inverted stereomicroscope.
# [2] = system: zebrafish embryos; conditions: for embryo development: 8 hpf; for heart shape and lower intestinal network blood vessels: 72 hpf
# [3] = system: zebrafish embryos; remark: listed apart in the source
# Method: (§1) Transgenic zebrafish (fli-1:EGFP) were from the Model Animal Research Center of Nanjing University. Adult zebrafish aged less than 1 were used for experiment and fed at a water pH value of 7±0.2, a temperature around 28° C. and a ratio of illumination to darkness of 14 h:10 h, and with Artemia salina eggs twice a day. Three zebrafish, one female, two males, were placed in a spawning box the night before and eggs were collected the next morning. Fish eggs were placed in an embryo culture medium (prepared with 0.2 g/L of sea salt) and cultured at 28° C. […] Dead embryos were cleaned up in time. A phenotype of malformation was observed, the number of all abnormal zebrafish where the malformation was present was recorded and a malformation rate and a rescue rate of each group were calculated. Morphological defects, a heart rate, cardiac morphology and other indicators were observed and evaluated by an SMZ745T inverted stereomicroscope.
# [4] = system: zebrafish embryos; remark: listed apart in the source
# Method: A table was listed below for details.
# 5-Selected concentrations of methyltetrahydrofolate in the experiment were recorded in the table.
# [5] = system: heart of fetal mice; test: Effects of folic acid and 5-methyltetrahydrofolate on heart development of fetal/neonatal mice, histology (Example 10)
# Method: 75 7-week-old female C57BL/6J mice and 25 8-week-old male C57BL/6J mice were provided by Shanghai Lingchang Biotechnology Co., Ltd. with a certificate number of SCXK (Shanghai) 2018-0003. […] The female mice were randomly divided into 5 groups according to body weight: a solvent control group, a folic acid (151.66 μg/kg) group, a folic acid (303.32 μg/kg) group, a calcium 5-methyltetrahydrofolate (converted to folic acid, 151.66 μg/kg) group and a calcium 5-methyl tetrahydrofolate (converted to folic acid, 303.32 μg/kg) group. 1.1275 unit mass of the calcium 5-methyltetrahydrofolate equaled to 1 unit mass of the folic acid.
# 15 mice were in each group and numbered by a toe clipping method. The mice were intragastrically administrated once a day on the second day after grouping. One week after the pre-administration, male and female mice were caged at a ratio of […], a vaginal plug was observed every day from the next day, and a day when the vaginal plug was seen was recorded as day 0.5 of pregnancy. After 14 days of caging, the female mice stopped the administration, the male mice were removed, and the pregnant female mice were fed alone until litter.
# After the detection, thoracic and abdominal cavities of the mice were dissected, cardiac morphology and beating were observed under a stereoscopic microscope (SMZ168, Motic, Xiamen, Fujian, China), and photographs and video recordings were taken (Motic Image Plus 3.0, Motic, Xiamen, Fujian, China). The mice were sacrificed and the hearts, the livers, the kidneys and the lungs were harvested. The hearts and the livers of the neonatal mice were selected from each group and fixed with 4% paraformaldehyde, the fixed hearts and livers were embedded in paraffin, the embedded hearts and livers were sliced and the slices were stained with H&E. A half of the other tissues were immersed in RNA later for fixation and the other half were directly immersed in liquid nitrogen and frozen for a subsequent experiment.
# 1-day-old neonatal mice were sacrificed, the hearts were taken and fixed with 4% paraformaldehyde, the fixed hearts were embedded in paraffin, the embedded hearts were sliced, the slices were stained with H&E and pictures were taken under a normal microscope.
# [6] = system: zebrafish embryos; test: Teratogenic effect of folic acid on zebrafish embryos (Example 3)
# Method: as §1
# [7] = system: zebrafish embryos; conditions: 6 mM FA + 10 mM L-5-MTHF-Ca
# Method: Transgenic zebrafish (fli-1:EGFP) were from the Model Animal Research Center of Nanjing University. Adult zebrafish aged less than 1 were used for experiment and fed at a water pH value of 7±0.2, a temperature around 28° C. and a ratio of illumination to darkness of 14 h:10 h, and with Artemia salina eggs twice a day. Three zebrafish, one female, two males, were placed in a spawning box the night before and eggs were collected the next morning. Fish eggs were placed in an embryo culture medium (prepared with 0.2 g/L of sea salt) and cultured at 28° C. […] Dead embryos were cleaned up in time. Each experiment was conducted in triplicate. […] A phenotype of malformation was observed, the number of all abnormal zebrafish where the malformation was present was recorded and a malformation rate and a rescue rate of each group were calculated. Morphological defects, a heart rate, cardiac morphology and other indicators were observed and evaluated by an SMZ745T inverted stereomicroscope.
# [8] = system: transcription factors (Nkx2.5, amhc, vmhc, hand2, has2, mef2a, mef2c, bmp2b, ephrinB2, ephB4) in zebrafish embryos; test: qRT-PCR expression of transcription factors during development of zebrafish embryos (Example 4); type: in vivo; conditions: 8 mM L-5-MTHF-Ca, 24 and 48 hpf
# Method: In order to explore an effect of folic acid on epigenetics during development of the zebrafish embryos, the zebrafish embryos at different developmental stages were collected for testing. […] A fluorescent dye SYBR Green was used in the qRT-PCR experiment. The qRT-PCR was conducted according to the instructions of an SYBR Green qPCR Master Mix kit and a detection was conducted on an ABI (HT 7900) PCR instrument. […] An expression of β-actin was used as an internal reference and relative expression levels of other genes were calculated by a ΔΔCt method.
# [9] = system: zebrafish embryos; remark: listed apart in the source
# Method: Each experiment was conducted in triplicate. Zebrafish embryos were administrated at 2 h post fertilization (2 hpf) and termination was conducted at 72 hpf. The number of deaths in each group was recorded at 8, 24, 48 and 72 hpf. No food was fed during a dosing period, and the dead embryos were cleaned up in time.
# [10] = Group D: calcium 5-methyltetrahydrofolate (converted to folic acid, 151.66 μg/kg) intragastric
# [11] = Group E: calcium 5-methyltetrahydrofolate (converted to folic acid, 303.32 μg/kg) intragastric
molecule,measurement,setting,value
"CCO [EtOH, ethanol]",survival rate,[1]; […] EtOH,significantly different from that of the control group
same,heart rate,"[1]; zebrafish, in vivo",led to a malformed phenotype of bradycardia in zebrafish embryos
same,lower intestinal network blood vessels,"[1]; zebrafish, in vivo",led to developmental disorders of lower intestinal network blood vessels of the zebrafish
same,pericardium edema,"[1]; zebrafish, in vivo",led to a malformed phenotype of pericardium edema in zebrafish embryos
"C=O [HCHO, formaldehyde]",lethality and teratogenicity to zebrafish,[2]; 30 mM HCHO,lethal but not teratogenic to zebrafish
same,"pericardium edema and heart rate (48 hpf), body length (72 hpf)",[2]; 30 mM HCHO,"had no effect on the pericardium edema, the heart rate and the body length of the zebrafish"
same,survival rate of embryos,[2]; 30 mM HCHO,severely lead to a low survival rate of embryos
same,embryo development,[2]; 30 mM HCHO,delayed development of the zebrafish embryos
same,heart shape and lower intestinal network blood vessels,[2]; 30 mM HCHO,normal heart shape and normal development of lower intestinal network blood vessels
"CN(Cc1cnc2nc(N)nc(N)c2n1)c1ccc(C(=O)N[C@@H](CCC(=O)O)C(=O)O)cc1 [MTX, methotrexate]","pericardium edema and 10 s heart rate (48 hpf), body length (72 hpf)",[3]; 1.5 mM MTX,"seriously led to pericardium edema, bradycardia, and a shortened body length of zebrafish"
same,survival rate of embryos,"[3]; 1.5 mM MTX, 6-10 hpf",lower than 0.1
same,embryo phenotype,"[3]; 1.5 mM MTX, 24 hpf",led to hypoplasia and deformities such as small heads and short tails of zebrafish
same,embryo phenotype,"[3]; 1.5 mM MTX, 48 hpf","led to body bending, intersegmental vascular hypoplasia and pericardium edema of zebrafish"
same,embryo phenotype,"[3]; 1.5 mM MTX, 72 hpf",led to a short body length and lower intestinal network vessel hypoplasia
same,Malformation rate,[3]; MTX group (1.5 mM),100%
COc1cccc2c1cc([N+](=O)[O-])c1c(C(=O)O)cc3c(c12)OCO3 [aristolochic acid A],"pericardium edema and 10 s heart rate (48 hpf), body length (72 hpf)",[4]; 1-5 μM aristolochic acid A,"seriously led to pericardium edema, bradycardia, and a shortened body length in zebrafish"
same,embryo phenotype,"[4]; 1-5 μM aristolochic acid A, 8 hpf and 24 hpf","did not lead to obvious embryonic development delay, malformation and death"
same,survival rate of embryos,[4]; 2-5 μM aristolochic acid A,seriously reduce a survival rate of embryos
same,embryo phenotype,"[4]; aristolochic acid A, 72 hpf",showed a complete deficiency of development of the lower intestinal network blood vessels of the zebrafish
same,embryo phenotype,"[4]; aristolochic acid A, increasing concentration, 48 hpf","gradually showed pericardium edema, a slowed heart rate, curved bodies, a disappeared systemic blood flow, hematocele, yolk sac opacity"
Calcium 5-Methyltetrahydrofolate [L-5-MTHF-Ca],congenital heart disease in fetal mice,[5]; 5-methyltetrahydrofolate group,no congenital heart disease is found
same,Development delay,[5]; [10],0
same,Malformation cases,[5]; [10],0
same,Sparse myocardial trabeculae,[5]; [10],0
same,Ventricular defects/septal defects,[5]; [10],0
same,Development delay,[5]; [11],0
same,Malformation cases,[5]; [11],0
same,Sparse myocardial trabeculae,[5]; [11],0
same,Ventricular defects/septal defects,[5]; [11],0
same,heart slices (H&E) of 1-day-old neonatal mice,[5]; low-dose and high-dose methyltetrahydrofolate groups,had intact myocardium
same,"pericardium edema and 10 s heart rate (48 hpf), body length (72 hpf), rescue",[3]; 1.5 mM MTX + 10 mM L-5-MTHF-Ca,"could rescue malformed phenotypes of the pericardium edema, the bradycardia and the shortened body length"
same,rescue of embryonic development malformations,[3]; 1.5 mM MTX + 10 mM L-5-MTHF-Ca,could rescue embryonic development malformations induced by 1.5 mM MTX
same,"survival rate of embryos, rescue",[3]; 1.5 mM MTX + 10 mM L-5-MTHF-Ca,no significant difference from that of a control group
same,Malformation rate,[3]; 1.5 mM MTX after adding L-5-MTHF-Ca (10 mM),10%
same,survival rate of zebrafish,"[6]; 10 mM L-5-MTHF-Ca in 20 mM NaHCO3, 2-72 hpf",did not affect the survival rate of zebrafish
same,embryo coverage,"[6]; 10 mM L-5-MTHF-Ca, 8 hpf",covered completely
same,heart shape and lower intestinal network blood vessels,"[6]; 10 mM L-5-MTHF-Ca, 72 hpf",normal heart shape and normal development of lower intestinal network blood vessels
same,"rate of pericardium edema, rescue","[1]; 0.6% EtOH + 10 mM L-5-MTHF-Ca, 48 hpf",could reduce a rate of pericardium edema
same,"heart rate, rescue","[1]; 0.9% and […] EtOH + 10 mM L-5-MTHF-Ca, 48 hpf",could relieve bradycardia
same,"survival rate, rescue",[1]; […] EtOH + 10 mM L-5-MTHF-Ca,could rescue the survival rate
same,"pericardium edema, rescue","[1]; […] EtOH + 10 mM L-5-MTHF-Ca, 48 hpf",had no effect on relieving pericardium edema
same,"lower intestinal network blood vessels, rescue","[1]; […] EtOH + 10 mM L-5-MTHF-Ca, 72 hpf",failed to ameliorate the defect
same,"body length, rescue",[1]; high concentration ([…]) of EtOH + 10 mM L-5-MTHF-Ca,relieve a shortened body length
same,"pericardium edema and heart rate (48 hpf), body length (72 hpf)",[2]; 30 mM HCHO + 10 mM L-5-MTHF-Ca,"had no effect on the pericardium edema, the heart rate and the body length of the zebrafish"
same,"survival rate of embryos, rescue",[2]; 30 mM HCHO + 10 mM L-5-MTHF-Ca,can rescue an effect of the 30 mM HCHO on a survival rate of the embryos
same,embryo development,[2]; 30 mM HCHO + 10 mM L-5-MTHF-Ca,delayed development of the zebrafish embryos
same,heart shape and lower intestinal network blood vessels,[2]; 30 mM HCHO + 10 mM L-5-MTHF-Ca,normal heart shape and normal development of lower intestinal network blood vessels
same,"10 s heart rate (48 hpf) and body length (72 hpf), rescue",[7],could rescue malformed phenotypes of the bradycardia and the shortened body length
same,"survival rate of embryos, rescue",[7],can rescue an effect of the 6 mM FA on a survival rate of the embryos
same,embryo development,[7]; 8 hpf,delayed development of the zebrafish embryos
same,embryo phenotype,[7]; 24 hpf,alleviated the malformation
same,embryo phenotype,[7]; 48 hpf,"led to pericardium edema, dyspigmentation, and intersegmental vascular hypoplasia of zebrafish"
same,"pericardium edema, rescue",[7]; 48 hpf,could not rescue the pericardium edema
same,embryo phenotype,[7]; 72 hpf,led to developmental disorders of lower intestinal network blood vessels of the zebrafish
same,expressions of the various genes vs normal control,[8],did not affect the expressions of the various genes
same,"10 s heart rate (48 hpf), body length and malformation (72 hpf), rescue",[4]; in vivo,"could rescue malformed phenotypes of the bradycardia, the shortened body length and abnormally curved bodies"
same,rescue of embryonic development malformations,[4]; in vivo,could rescue embryonic development malformations induced by 2 and 4 mM Pb(NO3)2
same,"survival rate of embryos, rescue",[4]; in vivo,did not rescue an effect of the 2 and 4 mM Pb(NO3)2 on a survival rate of the embryos
same,embryo phenotype,"[4]; zebrafish, in vivo","did not lead to obvious embryonic development delay, malformation and death"
same,"pericardium edema and 10 s heart rate (48 hpf), body length (72 hpf), rescue","[4]; zebrafish, in vivo","could rescue malformed phenotypes of the pericardium edema, the bradycardia and the shortened body length of the zebrafish to a certain extent"
same,embryo survival rate,"[9]; 10 mM L-5-MTHF-Ca, dosed 2 hpf to 72 hpf",did not affect an embryo survival rate
same,heart rate of zebrafish embryos,"[9]; 10 mM, 48 hpf, vs control group",no difference in the heart rate
same,heart shape and lower intestinal network blood vessels,"[9]; 10 mM, 72 hpf",the heart in each group had a normal shape and the lower intestinal network blood vessels developed normally
same,body length of zebrafish embryos,"[9]; 10 mM, 72 hpf, vs control group",no difference
